PubChem BioAssay AID260 (DTP/NCI, 2004)
“And” between values parts separate entries of the source, which are not always exact repeats. Equal entries are not always repeated. Inconclusive results and toxic doses are left out.

Test system: CD2F1 mice, intracerebral L1210 leukemia, survival T/C
Experiment: NCI In Vivo Anticancer Drug Screen. Data for tumor model L1210 Leukemia (intracerebral) in CD2F1 (CDF1) mice
Settings: higher = longer survival
Description: The antitumor activity of compounds was measured in mice bearing transplantable tumors. Survival or tumor size were measured and the results are expressed as the measurement made in the treated group (T) divided by the measurement made in the vehicle treated control group (C). The tumor model used in this assay is L1210 Leukemia (intracerebral) in CD2F1 (CDF1) mice

[1] = endpoint: median survival time, dose: 32.0 mg/kg/injection, schedule: Q01DX005 (ip), vehicle: saline with Tween-80
[2] = endpoint: median survival time, dose: 64.0 mg/kg/injection, schedule: Q01DX005 (ip), vehicle: saline with Tween-80
[3] = endpoint: median survival time, dose: 128.0 mg/kg/injection, schedule: Q01DX005 (ip), vehicle: saline with Tween-80
[4] = endpoint: median survival time, dose: 256.0 mg/kg/injection, schedule: Q01DX005 (ip), vehicle: saline with Tween-80
[5] = endpoint: median survival time, dose: 16.0 mg/kg/injection, schedule: Q01DX005 (ip), vehicle: saline with Tween-80

Question: With `CCCCN(C)N=Nc1ccc([N+](=O)[O-])cc1C(N)=O` as the molecule, how does the T/C (endpoint: mean survival time, dose: 100.0 mg/kg/injection, schedule: Q01DX009 (ip), vehicle: saline with Tween-80) read?
Answer: 112 % of control

Question: And the T/C (endpoint: mean survival time, dose: 200.0 mg/kg/injection, schedule: Q01DX009 (ip), vehicle: saline with Tween-80)?
Answer: 122 % of control

Question: What about the T/C (endpoint: mean survival time, dose: 400.0 mg/kg/injection, schedule: Q01DX009 (ip), vehicle: saline with Tween-80) of the same molecule?
Answer: 100 % of control

Question: What about the T/C (endpoint: mean survival time, dose: 600.0 mg/kg/injection, schedule: Q01DX009 (ip), vehicle: saline with Tween-80) of the same molecule?
Answer: 89 % of control

Question: And the T/C [1]?
Answer: 102 % of control

Question: What about the T/C [2] of the same molecule?
Answer: 108 % of control

Question: What about the T/C [3] of the same molecule?
Answer: 110 % of control

Question: What about the T/C [4] of the same molecule?
Answer: 103 % of control

Question: With `O=CC(NC(=O)N(CCCl)N=O)C(O)C(O)C(O)CO` (stereo unspecified) as the molecule, how does the T/C (endpoint: median survival time, dose: 3.13 mg/kg/injection, schedule: Q01DX001 (ip), vehicle: saline) read?
Answer: 103 % of control

Question: And the T/C (endpoint: median survival time, dose: 6.25 mg/kg/injection, schedule: Q01DX001 (ip), vehicle: saline)?
Answer: 106 % of control

Question: And the T/C (endpoint: median survival time, dose: 12.5 mg/kg/injection, schedule: Q01DX001 (ip), vehicle: saline)?
Answer: 122 % of control

Question: And the T/C (endpoint: median survival time, dose: 25.0 mg/kg/injection, schedule: Q01DX001 (ip), vehicle: DMSO)?
Answer: 152 % of control

Question: And the T/C (endpoint: median survival time, dose: 50.0 mg/kg/injection, schedule: Q01DX001 (ip), vehicle: DMSO)?
Answer: 95 % of control

Question: And the T/C (endpoint: median survival time, dose: 50.0 mg/kg/injection, schedule: Q01DX001 (ip), vehicle: saline)?
Answer: 92 % of control

Question: And the T/C (endpoint: median survival time, dose: 50.0 mg/kg/injection, schedule: Q01DX001 (oral), vehicle: saline)?
Answer: 97 % of control

Question: With `CC1CC(C)(O)CC(C(O)CC2CC(=O)NC(=O)C2)C1=O` (stereo unspecified) as the molecule, how does the T/C (endpoint: mean survival time, dose: 0.02 mg/kg/injection, schedule: Q01DX009 (ip), vehicle: saline) read?
Answer: 97 % of control

Question: What about the T/C (endpoint: mean survival time, dose: 0.04 mg/kg/injection, schedule: Q01DX009 (ip), vehicle: saline) of the same molecule?
Answer: 92 % of control

Question: What about the T/C (endpoint: mean survival time, dose: 0.08 mg/kg/injection, schedule: Q01DX009 (ip), vehicle: saline) of the same molecule?
Answer: 110 % of control

Question: What about the T/C (endpoint: mean survival time, dose: 0.16 mg/kg/injection, schedule: Q01DX009 (ip), vehicle: saline) of the same molecule?
Answer: 100 % of control

Question: And the T/C (endpoint: mean survival time, dose: 0.32 mg/kg/injection, schedule: Q01DX009 (ip), vehicle: saline)?
Answer: 106 % of control

Question: With `COc1ccc(C(=O)/C(Br)=C/C(=O)O)cc1` as the molecule, how does the T/C (endpoint: median survival time, dose: 10.0 mg/kg/injection, schedule: Q01DX005 (ip), vehicle: saline) read?
Answer: 98 % of control

Question: What about the T/C (endpoint: median survival time, dose: 20.0 mg/kg/injection, schedule: Q01DX005 (ip), vehicle: saline) of the same molecule?
Answer: 100 % of control

Question: What about the T/C (endpoint: median survival time, dose: 40.0 mg/kg/injection, schedule: Q01DX005 (ip), vehicle: saline) of the same molecule?
Answer: 105 % of control

Question: What does the source list for `CC(=O)c1ccccc1N=NN(C)C`?
Answer: T/C (endpoint: mean survival time, dose: 10.0 mg/kg/injection, schedule: Q01DX007 (ip), vehicle: DMSO): 91 % of control; T/C (endpoint: mean survival time, dose: 20.0 mg/kg/injection, schedule: Q01DX007 (ip), vehicle: DMSO): 91 % of control; T/C (endpoint: mean survival time, dose: 40.0 mg/kg/injection, schedule: Q01DX007 (ip), vehicle: DMSO): 93 % of control; T/C (endpoint: mean survival time, dose: 80.0 mg/kg/injection, schedule: Q01DX007 (ip), vehicle: DMSO): 103 % of control; T/C (endpoint: mean survival time, dose: 120.0 mg/kg/injection, schedule: Q01DX007 (ip), vehicle: DMSO): 100 % of control

Question: What does the source list for `CN=NNc1nc[nH]c1C(N)=O`?
Answer: T/C [5]: 107 % of control; T/C [1]: 101 % of control; T/C [2]: 112 % of control; T/C [3]: 107 % of control; T/C [4]: 86 % of control

Question: With `CN(Cc1cnc2nc(N)nc(N)c2n1)c1c(Cl)cc(C(=O)NC(CCC(=O)O)C(=O)O)cc1Cl` (stereo unspecified) as the molecule, how does the T/C (endpoint: median survival time, dose: 16.0 mg/kg/injection, schedule: Q01DX005 (ip), vehicle: saline) read?
Answer: 101 % of control and 111 % of control

Question: What about the T/C (endpoint: median survival time, dose: 32.0 mg/kg/injection, schedule: Q01DX005 (ip), vehicle: saline) of the same molecule?
Answer: 111 % of control

Question: What about the T/C (endpoint: median survival time, dose: 64.0 mg/kg/injection, schedule: Q01DX005 (ip), vehicle: saline) of the same molecule?
Answer: 119 % of control and 120 % of control

Question: How did the T/C [5] turn out when `CCCCCN(C)/N=N/c1nc[nH]c1C(N)=O` was run?
Answer: 112 % of control

Question: And the T/C [1]?
Answer: 122 % of control

Question: And the T/C [4]?
Answer: 92 % of control

Question: Which results are given for `CC(=O)NNC(=O)c1ccccn1`?
Answer: T/C (endpoint: median survival time, dose: 100.0 mg/kg/injection, schedule: Q01DX005 (ip), vehicle: Klucel (hydroxypropylcellulose) (HPC)): 103 % of control; T/C (endpoint: median survival time, dose: 200.0 mg/kg/injection, schedule: Q01DX005 (ip), vehicle: Klucel (hydroxypropylcellulose) (HPC)): 105 % of control
